Toxic doses and inconclusive results are not listed. Cut-off read from the data, not from the text of the source: active = T/C of 150% or more; inactive = T/C below 125%.
System: L1210 leukemia ip in BDF1 mice, survival T/C
Assay: NCI In Vivo Anticancer Drug Screen. Data for tumor model L1210 Leukemia (intraperitoneal) in B6D2F1 (BDF1) mice
Details: endpoint: mean survival time, higher = longer survival
Outline: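 Each compound was tested against a transplantable tumor grown in mice. The endpoint was survival, with treated animals benchmarked against vehicle controls as a simple ratio.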

[1] = dose: 50.0 mg/kg/injection, schedule: Q01DX009 (ip), vehicle: saline
[2] = dose: 100.0 mg/kg/injection, schedule: Q01DX009 (ip), vehicle: saline
[3] = dose: 200.0 mg/kg/injection, schedule: Q01DX009 (ip), vehicle: saline
[4] = dose: 100.0 mg/kg/injection, schedule: Q01DX001 (ip), vehicle: carboxymethylcellulose (CMC)
[5] = dose: 200.0 mg/kg/injection, schedule: Q01DX001 (ip), vehicle: carboxymethylcellulose (CMC)
[6] = dose: 400.0 mg/kg/injection, schedule: Q01DX001 (ip), vehicle: carboxymethylcellulose (CMC)
[7] = dose: 100.0 mg/kg/injection, schedule: Q01DX009 (ip), vehicle: Klucel (hydroxypropylcellulose) (HPC)
[8] = dose: 200.0 mg/kg/injection, schedule: Q01DX009 (ip), vehicle: Klucel (hydroxypropylcellulose) (HPC)
[9] = dose: 400.0 mg/kg/injection, schedule: Q01DX009 (ip), vehicle: Klucel (hydroxypropylcellulose) (HPC)
[10] = dose: 100.0 mg/kg/injection, schedule: Q01DX009 (ip), vehicle: saline with Tween-80
[11] = dose: 400.0 mg/kg/injection, schedule: Q01DX009 (ip), vehicle: saline with Tween-80
[12] = dose: 100.0 mg/kg/injection, schedule: Q01DX001 (ip), vehicle: saline
[13] = dose: 200.0 mg/kg/injection, schedule: Q01DX001 (ip), vehicle: saline

Measured: T/C

COc1cc(CC(C)N)cc(OC)c1OC (stereo not given)
inactive: [1] 110 % of control | [2] 108 % of control | [3] 103 % of control

Cc1cc(Cl)cc(CN(C)Cc2c(C)[nH]c(=O)[nH]c2=O)c1O
inactive: [4] 97 % of control | [5] 94 % of control | [6] 97 % of control

CSc1ccc(NC(=O)Nc2ccc(Cl)cc2Cl)cc1
inactive: [7] 93 % of control | [8] 88 % of control | [9] 88 % of control

CC(C)(O)CCCC1CCC2C3CCC4CCCCC4(C)C3CCC2(C)C1O (stereo not given)
inactive: dose: 100.0 mg/kg/injection, schedule: Q04DX002 (ip), vehicle: DMSO 86 % of control | dose: 200.0 mg/kg/injection, schedule: Q04DX002 (ip), vehicle: DMSO 96 % of control | dose: 400.0 mg/kg/injection, schedule: Q04DX002 (ip), vehicle: DMSO 92 % of control

COC1=CC(=O)CC(C)C12Oc1c(Cl)c(OC)cc(OC)c1C2=O (stereo not given)
inactive: dose: 5.0 mg/kg/injection, schedule: Q## X008 (ip), vehicle: other 103 % of control | dose: 10.0 mg/kg/injection, schedule: Q## X008 (ip), vehicle: other 91 % of control | dose: 20.0 mg/kg/injection, schedule: Q## X008 (ip), vehicle: other 94 % of control | dose: 40.0 mg/kg/injection, schedule: Q## X008 (ip), vehicle: other 91 % of control | dose: 50.0 mg/kg/injection, schedule: Q## X024 (ip), vehicle: other 111 % of control | dose: 80.0 mg/kg/injection, schedule: Q## X008 (ip), vehicle: other 88 % of control | dose: 100.0 mg/kg/injection, schedule: Q## X024 (ip), vehicle: other 100 % of control | dose: 200.0 mg/kg/injection, schedule: Q## X024 (ip), vehicle: other 100 % of control | dose: 400.0 mg/kg/injection, schedule: Q## X024 (ip), vehicle: other 95 % of control | dose: 800.0 mg/kg/injection, schedule: Q## X024 (ip), vehicle: other 100 % of control

O=[N+]([O-])c1ccccc1O
inactive: [10] 98 % of control | dose: 200.0 mg/kg/injection, schedule: Q01DX009 (ip), vehicle: saline with Tween-80 107 % of control | [11] 100 % of control

O=C(O)/C(=C\c1cccc(Br)c1)c1ccccc1
inactive: dose: 75.0 mg/kg/injection, schedule: Q04DX003 (ip), vehicle: Klucel (hydroxypropylcellulose) (HPC) 104 % of control | dose: 100.0 mg/kg/injection, schedule: Q01DX001 (ip), vehicle: Klucel (hydroxypropylcellulose) (HPC) 105 % of control | dose: 150.0 mg/kg/injection, schedule: Q04DX003 (ip), vehicle: Klucel (hydroxypropylcellulose) (HPC) 96 % of control | dose: 200.0 mg/kg/injection, schedule: Q01DX001 (ip), vehicle: Klucel (hydroxypropylcellulose) (HPC) 97 % of control | dose: 300.0 mg/kg/injection, schedule: Q04DX003 (ip), vehicle: Klucel (hydroxypropylcellulose) (HPC) 105 % of control | dose: 400.0 mg/kg/injection, schedule: Q01DX001 (ip), vehicle: Klucel (hydroxypropylcellulose) (HPC) 97 % of control

CSc1nc(N)nc2ncc(CN(C)c3ccc(C(=O)O)cc3)nc12
inactive: dose: 8.0 mg/kg/injection, schedule: Q01DX009 (ip), vehicle: DMSO 100 % of control | dose: 12.0 mg/kg/injection, schedule: Q01DX009 (ip), vehicle: DMSO 98 % of control | dose: 18.0 mg/kg/injection, schedule: Q01DX009 (ip), vehicle: DMSO 100 % of control | dose: 25.0 mg/kg/injection, schedule: Q01DX009 (ip), vehicle: DMSO 88 % of control | dose: 50.0 mg/kg/injection, schedule: Q01DX001 (ip), vehicle: DMSO 91 % of control

Nc1nc(N)nc(N)n1 (tested in a mixture with another compound)
inactive: dose: 100.0 mg/kg/injection, schedule: Q04DX003 (ip), vehicle: saline with Tween-80 89 % of control | dose: 200.0 mg/kg/injection, schedule: Q04DX003 (ip), vehicle: saline with Tween-80 89 % of control

CCOC(=O)Cc1cc(=O)c2cc(C)ccc2[nH]1
inactive: [12] 90 % of control | [13] 89 % of control | dose: 400.0 mg/kg/injection, schedule: Q01DX001 (ip), vehicle: saline 90 % of control

NNc1ncnc(SCc2ccccc2)c1N
inactive: dose: 50.0 mg/kg/injection, schedule: Q01DX001 (ip), vehicle: carboxymethylcellulose (CMC) 93 % of control | [4] 98 % of control | [5] 89 % of control | [6] 89 % of control

Cc1cc(C)c(O)c(C)c1C
inactive: [10] 104 % of control | [11] 95 % of control

COc1ccccc1C1OCC(C)(C)CO1
inactive: [7] 90 % of control | dose: 100.0 mg/kg/injection, schedule: Q04DX003 (ip), vehicle: Klucel (hydroxypropylcellulose) (HPC) 109 % of control | [8] 95 % of control | dose: 200.0 mg/kg/injection, schedule: Q04DX003 (ip), vehicle: Klucel (hydroxypropylcellulose) (HPC) 103 % of control | [9] 92 % of control | dose: 400.0 mg/kg/injection, schedule: Q04DX003 (ip), vehicle: Klucel (hydroxypropylcellulose) (HPC) 108 % of control

CS(=O)(=O)c1nc(N)nc2nc[nH]c12
inactive: dose: 7.5 mg/kg/injection, schedule: Q01DX Z (ip), vehicle: methylcellulose (MC) 95 % of control | dose: 10.0 mg/kg/injection, schedule: Q01DX001 (ip), vehicle: carboxymethylcellulose (CMC) 101 % of control | dose: 12.5 mg/kg/injection, schedule: Q01DX009 (ip), vehicle: saline 109 % of control | dose: 15.0 mg/kg/injection, schedule: Q01DX Z (ip), vehicle: methylcellulose (MC) 115 % of control | dose: 25.0 mg/kg/injection, schedule: Q01DX009 (ip), vehicle: saline 100 % of control | dose: 30.0 mg/kg/injection, schedule: Q01DX Z (ip), vehicle: methylcellulose (MC) 117 % of control | dose: 50.0 mg/kg/injection, schedule: Q01DX001 (ip), vehicle: saline 95 % of control | [1] 102 % of control | dose: 50.0 mg/kg/injection, schedule: Q04DX003 (ip), vehicle: saline 98 % of control | dose: 60.0 mg/kg/injection, schedule: Q01DX Z (ip), vehicle: carboxymethylcellulose (CMC) 119 % of control | dose: 60.0 mg/kg/injection, schedule: Q01DX Z (ip), vehicle: methylcellulose (MC) 123 % of control | dose: 75.0 mg/kg/injection, schedule: Q01DX Z (ip), vehicle: methylcellulose (MC) 120 % of control | [12] 101 % of control | [2] 97 % of control | dose: 100.0 mg/kg/injection, schedule: Q04DX003 (ip), vehicle: saline 93 % of control | [5] 100 % of control | [13] 117 % of control | [3] 103 % of control | dose: 200.0 mg/kg/injection, schedule: Q04DX003 (ip), vehicle: saline 98 % of control

O=[N+]([O-])c1ccc(OCc2ccc(S(=O)(=O)F)cc2Cl)c(Cl)c1
inactive: dose: 100.0 mg/kg/injection, schedule: Q04DX003 (ip), vehicle: gum acacia 98 % of control | dose: 200.0 mg/kg/injection, schedule: Q04DX003 (ip), vehicle: gum acacia 95 % of control | dose: 400.0 mg/kg/injection, schedule: Q04DX003 (ip), vehicle: gum acacia 97 % of control

From PubChem BioAssay AID248 (DTP/NCI, 2004)
